According to a compilation of properties of binary mixtures (doi:10.1016/j.molliq.2022.119221):

Experiment: xn = mol fraction of the nth substance listed
Conditions: 100 kPa

OCCO + CCCC[n+]1ccn(C)c1.O=S(=O)([N-]S(=O)(=O)C(F)(F)F)C(F)(F)F
viscosity [mPa·s]
Conditions | 293.15 K | 298.15 K | 303.15 K | 308.15 K | 313.15 K | 318.15 K | 323.15 K | 328.15 K | 333.15 K | 338.15 K
x2 = 0.1 | 30.7 | 24.6 | 19.2 | 15.2 | 12.5 | 10.4 | 8.87 | 7.66 | 6.65 | 5.82
x2 = 0.2002 | – | – | 21.5 | 17.6 | 14.8 | 12.5 | 10.7 | 9.27 | – | 7.1
x2 = 0.2997 | 37.9 | 29.2 | 22.8 | – | – | – | – | 9.9 | 8.68 | 7.64
x2 = 0.4015 | – | 31.4 | 24.5 | 19.7 | 16.5 | 14.1 | 12.1 | – | 9.16 | 8.01
x2 = 0.4993 | 42 | 32.5 | 25.1 | 20.4 | 17.2 | 14.7 | 12.6 | 10.9 | 9.57 | 8.48
x2 = 0.6007 | 43 | 33.3 | 26.2 | 21.7 | 17.8 | 15 | 13 | – | 9.8 | 8.61
x2 = 0.7003 | 42 | 33.7 | 26.3 | – | 18.4 | – | 13.4 | 11.6 | 10.1 | 8.93
x2 = 0.7993 | 42.4 | 34.6 | 28.2 | 23.8 | 20.2 | 17.2 | – | 12.9 | – | –
x2 = 0.9 | 48.7 | 39.8 | 32.8 | 27.3 | 23.1 | 19.7 | – | – | 12.9 | 11.4
